Legend:
[1] = system: A549/ATCC; design: method as in earlier work; settings: cited from earlier work
[2] = system: HOP-62; design: method as in earlier work; settings: cited from earlier work
[3] = system: HOP-92; design: method as in earlier work; settings: cited from earlier work
[4] = system: NCI-H226; design: method as in earlier work; settings: cited from earlier work
[5] = system: NCI-H23; design: method as in earlier work; settings: cited from earlier work
[6] = system: NCI-H460; design: method as in earlier work; settings: cited from earlier work
[7] = system: NCI-H522; design: method as in earlier work; settings: cited from earlier work
[8] = system: NSC lung cancer; design: method as in earlier work; settings: NSC lung cancer subpanel; read-out: GI50 MG_MID; cited from earlier work
[9] = system: COLO 205; design: method as in earlier work; settings: cited from earlier work
[10] = system: HCC-2998; design: method as in earlier work; settings: cited from earlier work
[11] = system: HCT-116; design: method as in earlier work; settings: cited from earlier work
[12] = system: HCT-15; design: method as in earlier work; settings: cited from earlier work
[13] = system: HT29; design: method as in earlier work; settings: cited from earlier work
[14] = system: KM12; design: method as in earlier work; settings: cited from earlier work
[15] = system: SW-620; design: method as in earlier work; settings: cited from earlier work
[16] = system: Colon Cancer; design: method as in earlier work; settings: Colon Cancer subpanel; read-out: GI50 MG_MID; cited from earlier work
[17] = system: SF-268; design: method as in earlier work; settings: cited from earlier work
[18] = system: SF-539; design: method as in earlier work; settings: cited from earlier work
[19] = system: SNB-19; design: method as in earlier work; settings: cited from earlier work
[20] = system: SNB-75; design: method as in earlier work; settings: cited from earlier work
[21] = system: U251; design: method as in earlier work; settings: cited from earlier work
[22] = system: CNS cancer; design: method as in earlier work; settings: CNS cancer subpanel; read-out: GI50 MG_MID; cited from earlier work
[23] = system: LOX IMVI; design: method as in earlier work; settings: cited from earlier work
[24] = system: MALME-3M; design: method as in earlier work; settings: cited from earlier work
[25] = system: M14; design: method as in earlier work; settings: cited from earlier work
[26] = system: MDA-MB-435; design: method as in earlier work; settings: cited from earlier work
[27] = system: SK-MEL-2; design: method as in earlier work; settings: cited from earlier work
[28] = system: SK-MEL-28; design: method as in earlier work; settings: cited from earlier work
[29] = system: SK-MEL-5; design: method as in earlier work; settings: cited from earlier work
[30] = system: UACC-257; design: method as in earlier work; settings: cited from earlier work
[31] = system: UACC-62; design: method as in earlier work; settings: cited from earlier work
[32] = system: Melanoma; design: method as in earlier work; settings: Melanoma subpanel; read-out: GI50 MG_MID; cited from earlier work
[33] = system: IGROV1; design: method as in earlier work; settings: cited from earlier work
[34] = system: OVCAR-3; design: method as in earlier work; settings: cited from earlier work
[35] = system: OVCAR-4; design: method as in earlier work; settings: cited from earlier work
[36] = system: OVCAR-5; design: method as in earlier work; settings: cited from earlier work
[37] = system: OVCAR-8; design: method as in earlier work; settings: cited from earlier work
[38] = system: NCI/ADR-RES; design: method as in earlier work; settings: cited from earlier work
[39] = system: SK-OV-3; design: method as in earlier work; settings: cited from earlier work
[40] = system: Ovarian cancer; design: method as in earlier work; settings: Ovarian cancer subpanel; read-out: GI50 MG_MID; cited from earlier work
[41] = system: 786-0; design: method as in earlier work; settings: cited from earlier work
[42] = system: A498; design: method as in earlier work; settings: cited from earlier work
[43] = system: ACHN; design: method as in earlier work; settings: cited from earlier work
[44] = system: CAKI-1; design: method as in earlier work; settings: cited from earlier work
[45] = system: RXF 393; design: method as in earlier work; settings: cited from earlier work
[46] = system: SN12C; design: method as in earlier work; settings: cited from earlier work
[47] = system: TK-10; design: method as in earlier work; settings: cited from earlier work
[48] = system: UO-31; design: method as in earlier work; settings: cited from earlier work
[49] = system: Renal Cancer; design: method as in earlier work; settings: Renal cancer subpanel; read-out: GI50 MG_MID; cited from earlier work
[50] = system: PC-3; design: method as in earlier work; settings: cited from earlier work
[51] = system: DU-145; design: method as in earlier work; settings: cited from earlier work
[52] = system: Prostate cancer; design: method as in earlier work; settings: Prostate cancer subpanel; read-out: GI50 MG_MID; cited from earlier work
[53] = system: MCF7; design: method as in earlier work; settings: cited from earlier work
[54] = system: MDA-MB-31/ATCC; design: method as in earlier work; settings: cited from earlier work
[55] = system: HS 578T; design: method as in earlier work; settings: cited from earlier work
[56] = system: BT-549; design: method as in earlier work; settings: cited from earlier work
[57] = system: T-47D; design: method as in earlier work; settings: cited from earlier work
[58] = system: Breast cancer; design: method as in earlier work; settings: Breast cancer subpanel; read-out: GI50 MG_MID; cited from earlier work
[59] = system: NCI-60 cancer cell line panel; design: method as in earlier work; settings: mean graph midpoint, full panel; read-out: GI50 MG_MID60; cited from earlier work
[60] = system: EKVX; design: method as in earlier work; settings: cited from earlier work
[61] = system: SF-295; design: method as in earlier work; settings: cited from earlier work
[62] = system: MDA-MB-468; design: method as in earlier work; settings: cited from earlier work
[63] = system: chorioallantoic membrane; settings: in vivo
Description: In this assay, the irritation potential may range from 0 to 21, with 0 being non-irritant and 21 being the most irritant. […] The irritation score was established according to Luepke scale: 0–0.9 indicates non-irritant, 1–4.9 indicates weakly irritant, 5–8.9 indicates moderately irritant, while 9–21 means strongly irritant (Table 6) [88, 89].
The in vivo Hen’s Egg Chorioallantoic Membrane Test (HET-CAM) assay determines a potential irritant effect on the vascular plexus of the chorioallantoic membrane [94]. The HET-CAM method was carried out following ICCVAM recommendations published in November 2016 in Appendix G and adapted to our conditions [88, 95, 96]. Thus, a volume of 300 µL of control or test solution was applied and the modifications produced at the CAM level were monitored by means of stereomicroscopy (Discovery 8 Stereomicroscope, Zeiss), registering significant images (Axio CAM 105 color, Zeiss), before application after 5 min of contact with the samples. All images were processed using Zeiss ZEN software, Gimp 2.8, and ImageJ software.
Negative control was represented by distilled water and solvent control DMSO 0.5%, and positive control by sodium lauryl sulphate (SLS) 0.5% in distillate water. The test substances were tested in concentrations of 1 µM.
Finally, the following reactions were: hemorrhage—H (blood vessel bleeding), vascular lysis—L (disintegration of blood vessels), coagulation—C (intra- or extra-vascular protein denaturizing). A variety of analysis methods may be used to assess irritancy potential of test substances. One analysis method that has been used extensively is an irritation score (IS). The formula used to generate an IS value is:(1) IS=5×301−Sec H/300+7×300−Sec L/300+9×301−Sec C/300 where: H = hemorrhage; L = vessel lysis; C = coagulation; hemorrhage time (Sec H) = onset of hemorrhage reactions on CAM (in seconds); lysis time (Sec L) = onset of vessel lysis on CAM (in seconds); coagulation time (Sec C) = onset of coagulation formation on CAM (in seconds). Means values are obtained. […] The IS values range on a scale between 0 and 21.

O=c1[nH]cc(F)c(=O)[nH]1 [Compound 5-FU, 5-fluorouracil]
GI50 [1]: 0.18 µM | GI50 [2]: 0.39 µM | GI50 [3]: 77.9 µM | GI50 [4]: 54.7 µM | GI50 [5]: 0.33 µM | GI50 [6]: 0.05 µM | GI50 [7]: 7.27 µM | GI50 [8]: 20.1 µM | GI50 [9]: 0.15 µM | GI50 [10]: 0.05 µM | GI50 [11]: 0.22 µM | GI50 [12]: 0.11 µM | GI50 [13]: 0.17 µM | GI50 [14]: 0.21 µM | GI50 [15]: 0.92 µM | GI50 [16]: 0.26 µM | GI50 [17]: 1.62 µM | GI50 [18]: 0.06 µM | GI50 [19]: 3.81 µM | GI50 [20]: 78.7 µM | GI50 [21]: 0.92 µM | GI50 [22]: 17 µM | GI50 [23]: 0.24 µM | GI50 [24]: 0.05 µM | GI50 [25]: 0.98 µM | GI50 [26]: 0.07 µM | GI50 [27]: 56.7 µM | GI50 [28]: 1.03 µM | GI50 [29]: 0.46 µM | GI50 [30]: 3.55 µM | GI50 [31]: 0.52 µM | GI50 [32]: 7.07 µM | GI50 [33]: 1.22 µM | GI50 [34]: 0.01 µM | GI50 [35]: 4.43 µM | GI50 [36]: 10.9 µM | GI50 [37]: 1.74 µM | GI50 [38]: 0.31 µM | GI50 [39]: 21.8 µM | GI50 [40]: 5.77 µM | GI50 [41]: 0.72 µM | GI50 [42]: 0.35 µM | GI50 [43]: 0.27 µM | GI50 [44]: 0.07 µM | GI50 [45]: 2.61 µM | GI50 [46]: 0.49 µM | GI50 [47]: 1.12 µM | GI50 [48]: 1.42 µM | GI50 [49]: 0.88 µM | GI50 [50]: 2.36 µM | GI50 [51]: 0.36 µM | GI50 [52]: 1.36 µM | GI50 [53]: 0.07 µM | GI50 [54]: 6.6 µM | GI50 [55]: 9.77 µM | GI50 [56]: 10.6 µM | GI50 [57]: 8.12 µM | GI50 [58]: 7.03 µM | GI50 [59]: 6.97 µM

COc1cccc2c1C(=O)c1c(O)c3c(c(O)c1C2=O)C[C@@](O)(C(=O)CO)C[C@@H]3O[C@H]1C[C@H](N)[C@H](O)[C@H](C)O1 [DRB, doxorubicin]
GI50 [1]: 0.06 µM | GI50 [60]: 0.41 µM | GI50 [2]: 0.07 µM | GI50 [3]: 0.1 µM | GI50 [4]: 0.05 µM | GI50 [5]: 0.15 µM | GI50 [6]: 0.02 µM | GI50 [7]: 0.03 µM | GI50 [8]: 0.11 µM | GI50 [9]: 0.18 µM | GI50 [10]: 0.26 µM | GI50 [11]: 0.08 µM | GI50 [12]: 6.46 µM | GI50 [13]: 0.12 µM | GI50 [14]: 0.27 µM | GI50 [15]: 0.09 µM | GI50 [17]: 0.1 µM | GI50 [61]: 0.1 µM | GI50 [18]: 0.12 µM | GI50 [19]: 0.04 µM | GI50 [20]: 0.07 µM | GI50 [21]: 0.04 µM | GI50 [22]: 0.08 µM | GI50 [23]: 0.07 µM | GI50 [24]: 0.12 µM | GI50 [25]: 0.18 µM | GI50 [26]: 0.25 µM | GI50 [27]: 0.17 µM | GI50 [28]: 0.21 µM | GI50 [29]: 0.08 µM | GI50 [30]: 0.14 µM | GI50 [31]: 0.12 µM | GI50 [32]: 0.15 µM | GI50 [33]: 0.17 µM | GI50 [34]: 0.39 µM | GI50 [35]: 0.37 µM | GI50 [36]: 0.41 µM | GI50 [37]: 0.1 µM | GI50 [38]: 7.16 µM | GI50 [39]: 0.22 µM | GI50 [40]: 1.26 µM | GI50 [41]: 0.13 µM | GI50 [42]: 0.1 µM | GI50 [43]: 0.08 µM | GI50 [44]: 0.95 µM | GI50 [45]: 0.1 µM | GI50 [46]: 0.07 µM | GI50 [48]: 0.49 µM | GI50 [49]: 0.27 µM | GI50 [50]: 0.32 µM | GI50 [51]: 0.11 µM | GI50 [52]: 0.21 µM | GI50 [53]: 0.03 µM | GI50 [54]: 0.51 µM | GI50 [55]: 0.33 µM | GI50 [56]: 0.23 µM | GI50 [57]: 0.06 µM | GI50 [62]: 0.05 µM | GI50 [58]: 0.19 µM | GI50 [59]: 0.38 µM

CCCCCCCCCCCCOS(=O)(=O)[O-].[Na+] [SLS 0.5%, sodium laurylsulphate]
Type of Effect [63]: Strong irritant

From paper PMC8536124 (International Journal of Molecular Sciences, 2021)
